Assay results reported in ChEMBL document CHEMBL1139197, “Synthesis, structural analysis, and SAR studies of triazine derivatives as potent, selective Tie-2 inhibitors” (Bioorg Med Chem Lett, 2007).
≈ marks a conversion by molar mass, not a printed value.

Assays:
[1] = target: T1, Vascular endothelial growth factor receptor 2 (Homo sapiens, UniProt P35968); assay: Inhibition of KDR after 90 mins by HTRF assay
Angiopoietin-1 receptor [2] = target: T2, Angiopoietin-1 receptor (Homo sapiens, UniProt Q02763); assay: Inhibition of Tie2 autophosphorylation in EA.hy926 cells after […]; assay type: cell-based
T2 sequence (Q02763 whole entry): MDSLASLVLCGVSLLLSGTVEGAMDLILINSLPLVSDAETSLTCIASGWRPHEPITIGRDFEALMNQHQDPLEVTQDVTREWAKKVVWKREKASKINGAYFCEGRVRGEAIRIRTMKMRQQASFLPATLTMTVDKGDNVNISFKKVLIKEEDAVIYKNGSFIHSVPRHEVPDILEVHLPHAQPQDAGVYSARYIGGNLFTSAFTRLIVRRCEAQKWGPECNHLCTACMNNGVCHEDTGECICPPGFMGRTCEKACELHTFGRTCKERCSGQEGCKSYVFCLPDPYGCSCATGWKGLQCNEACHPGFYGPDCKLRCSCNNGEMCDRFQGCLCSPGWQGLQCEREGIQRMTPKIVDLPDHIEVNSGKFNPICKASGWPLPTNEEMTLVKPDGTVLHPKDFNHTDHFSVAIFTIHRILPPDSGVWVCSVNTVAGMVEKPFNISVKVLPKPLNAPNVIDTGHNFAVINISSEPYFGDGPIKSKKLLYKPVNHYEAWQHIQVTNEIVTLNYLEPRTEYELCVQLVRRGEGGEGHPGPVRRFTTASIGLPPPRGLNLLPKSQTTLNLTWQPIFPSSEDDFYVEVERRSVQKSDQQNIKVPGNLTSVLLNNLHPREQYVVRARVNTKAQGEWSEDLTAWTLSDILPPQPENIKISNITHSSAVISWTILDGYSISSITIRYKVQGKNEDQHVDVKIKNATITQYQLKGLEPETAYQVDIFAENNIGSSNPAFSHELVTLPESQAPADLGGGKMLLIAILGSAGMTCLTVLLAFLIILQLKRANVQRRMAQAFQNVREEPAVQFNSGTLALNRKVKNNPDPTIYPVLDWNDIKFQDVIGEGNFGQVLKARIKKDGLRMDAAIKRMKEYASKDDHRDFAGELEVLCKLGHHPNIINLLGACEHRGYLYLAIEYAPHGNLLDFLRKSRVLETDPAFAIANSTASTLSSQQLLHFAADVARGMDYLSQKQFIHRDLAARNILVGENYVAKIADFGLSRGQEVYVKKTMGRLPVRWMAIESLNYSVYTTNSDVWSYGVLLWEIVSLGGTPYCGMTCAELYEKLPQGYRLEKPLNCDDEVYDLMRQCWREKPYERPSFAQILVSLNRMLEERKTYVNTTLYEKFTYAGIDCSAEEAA

Angiopoietin-1 receptor [3] = target: T2, Angiopoietin-1 receptor; assay: Inhibition of Tie2 after 90 mins by HTRF assay
[4] = Clearance in Sprague-Dawley rat at 2 mg/kg, iv; assay type: ADME, organism-based; parameters: dose 2 mg/kg, route intravenous; conditions: in vivo
[5] = target: T1, Vascular endothelial growth factor receptor 2; assay: Inhibition of KDR autophosphorylation in EA.hy926 cells after […]; assay type: cell-based
[6] = target: Fibroblast growth factor receptor (Homo sapiens, UniProt P22607+P11362+P22455+P21802); assay: Inhibition of FGFR by radioactive filtration assay; assay type: protein assay
[7] = AUC (0 to infinity) in Sprague-Dawley rat at 10 mg/kg, po; assay type: ADME, organism-based; parameters: time infinity, dose 10 mg/kg, route oral; conditions: plasma
[8] = target: Tyrosine-protein kinase Lck (Homo sapiens, UniProt P06239); assay: Inhibition of Lck by radioactive filtration assay
Tyrosine-protein kinase Lck, sequence (P06239 whole entry): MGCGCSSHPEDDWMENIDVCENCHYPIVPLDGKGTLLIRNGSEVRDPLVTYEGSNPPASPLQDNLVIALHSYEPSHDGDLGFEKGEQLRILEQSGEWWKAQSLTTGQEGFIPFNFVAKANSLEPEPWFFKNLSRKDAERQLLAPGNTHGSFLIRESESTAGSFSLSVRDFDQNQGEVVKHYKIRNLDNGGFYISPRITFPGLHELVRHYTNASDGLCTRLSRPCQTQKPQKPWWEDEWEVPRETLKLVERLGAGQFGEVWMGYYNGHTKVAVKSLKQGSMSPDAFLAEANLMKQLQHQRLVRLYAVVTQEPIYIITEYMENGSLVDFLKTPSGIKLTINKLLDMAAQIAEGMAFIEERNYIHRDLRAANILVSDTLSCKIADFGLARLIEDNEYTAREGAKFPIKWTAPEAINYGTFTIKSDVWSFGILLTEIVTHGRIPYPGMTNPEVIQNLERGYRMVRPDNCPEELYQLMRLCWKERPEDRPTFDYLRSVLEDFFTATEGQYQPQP

[9] = Solubility in 0.01 N HCl at pH 2.0; assay type: physicochemical
[10] = Oral bioavailability in Sprague-Dawley rat at 10 mg/kg, po; assay type: ADME, organism-based; conditions: in vivo
[11] = Cmax in Sprague-Dawley rat at 10 mg/kg, po; assay type: ADME, organism-based; parameters: dose 10 mg/kg, route oral; conditions: in vivo
[12] = Volume of distribution in Sprague-Dawley rat at 2 mg/kg, iv; assay type: ADME, organism-based; parameters: dose 2 mg/kg, route intravenous; conditions: in vivo, read-out: Vdss
[13] = Half life in Sprague-Dawley rat at 2 mg/kg, iv; assay type: ADME, organism-based; parameters: dose 2 mg/kg, route intravenous; conditions: in vivo
[14] = target: Mast/stem cell growth factor receptor Kit (Homo sapiens, UniProt P10721); assay: Inhibition of cKit by radioactive filtration assay
[15] = Solubility in phosphate buffer at pH 7.1; assay type: physicochemical
[16] = target: Tyrosine-protein kinase JAK2 (Homo sapiens, UniProt O60674); assay: Inhibition of Jak2 by radioactive filtration assay
Tyrosine-protein kinase JAK2, sequence (O60674 whole entry): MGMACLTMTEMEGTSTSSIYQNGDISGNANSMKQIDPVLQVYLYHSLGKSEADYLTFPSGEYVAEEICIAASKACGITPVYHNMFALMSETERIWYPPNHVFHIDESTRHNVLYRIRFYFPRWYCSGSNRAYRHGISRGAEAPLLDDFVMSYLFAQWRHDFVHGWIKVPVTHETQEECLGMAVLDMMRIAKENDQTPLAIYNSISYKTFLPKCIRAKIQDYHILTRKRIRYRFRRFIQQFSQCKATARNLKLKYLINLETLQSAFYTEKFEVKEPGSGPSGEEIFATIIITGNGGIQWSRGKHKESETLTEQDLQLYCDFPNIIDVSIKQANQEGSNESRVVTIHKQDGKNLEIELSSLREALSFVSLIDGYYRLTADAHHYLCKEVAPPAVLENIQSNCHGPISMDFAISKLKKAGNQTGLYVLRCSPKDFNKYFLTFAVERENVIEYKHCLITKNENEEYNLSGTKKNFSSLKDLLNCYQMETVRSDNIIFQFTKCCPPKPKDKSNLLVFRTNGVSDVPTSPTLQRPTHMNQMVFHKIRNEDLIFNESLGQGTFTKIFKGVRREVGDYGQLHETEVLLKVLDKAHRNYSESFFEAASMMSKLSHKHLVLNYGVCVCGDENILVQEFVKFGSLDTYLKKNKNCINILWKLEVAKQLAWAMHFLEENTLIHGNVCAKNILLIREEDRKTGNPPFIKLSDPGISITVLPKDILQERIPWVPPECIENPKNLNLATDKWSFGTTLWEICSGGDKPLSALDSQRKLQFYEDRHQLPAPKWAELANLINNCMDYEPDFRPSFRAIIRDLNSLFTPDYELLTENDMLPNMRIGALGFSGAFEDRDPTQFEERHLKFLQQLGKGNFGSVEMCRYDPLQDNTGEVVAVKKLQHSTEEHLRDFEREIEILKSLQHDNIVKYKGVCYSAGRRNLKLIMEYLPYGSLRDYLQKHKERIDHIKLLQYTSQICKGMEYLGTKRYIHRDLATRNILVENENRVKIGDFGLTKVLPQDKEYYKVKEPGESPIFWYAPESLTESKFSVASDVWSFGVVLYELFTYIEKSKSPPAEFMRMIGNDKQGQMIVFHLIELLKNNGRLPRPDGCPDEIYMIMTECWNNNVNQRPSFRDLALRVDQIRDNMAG

[17] = target: T3, Mitogen-activated protein kinase 14 (Homo sapiens, UniProt Q16539); assay: Inhibition of p38-alpha in THP1 cells assessed as TNFalpha levels; assay type: cell-based, THP-1
T3 sequence (Q16539 whole entry): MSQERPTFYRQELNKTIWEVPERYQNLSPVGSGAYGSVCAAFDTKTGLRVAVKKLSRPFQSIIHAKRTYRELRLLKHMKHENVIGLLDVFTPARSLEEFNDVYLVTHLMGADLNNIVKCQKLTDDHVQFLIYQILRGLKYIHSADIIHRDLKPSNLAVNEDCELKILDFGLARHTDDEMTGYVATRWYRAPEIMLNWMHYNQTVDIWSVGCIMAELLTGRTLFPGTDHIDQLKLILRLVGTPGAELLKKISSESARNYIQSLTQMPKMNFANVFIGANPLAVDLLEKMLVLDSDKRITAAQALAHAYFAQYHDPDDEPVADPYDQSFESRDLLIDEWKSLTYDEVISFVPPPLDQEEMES

[18] = target: Mitogen-activated protein kinase 10 (Homo sapiens, UniProt P53779); assay: Inhibition of JNK3 by radioactive filtration assay
Mitogen-activated protein kinase 10, sequence (P53779 whole entry): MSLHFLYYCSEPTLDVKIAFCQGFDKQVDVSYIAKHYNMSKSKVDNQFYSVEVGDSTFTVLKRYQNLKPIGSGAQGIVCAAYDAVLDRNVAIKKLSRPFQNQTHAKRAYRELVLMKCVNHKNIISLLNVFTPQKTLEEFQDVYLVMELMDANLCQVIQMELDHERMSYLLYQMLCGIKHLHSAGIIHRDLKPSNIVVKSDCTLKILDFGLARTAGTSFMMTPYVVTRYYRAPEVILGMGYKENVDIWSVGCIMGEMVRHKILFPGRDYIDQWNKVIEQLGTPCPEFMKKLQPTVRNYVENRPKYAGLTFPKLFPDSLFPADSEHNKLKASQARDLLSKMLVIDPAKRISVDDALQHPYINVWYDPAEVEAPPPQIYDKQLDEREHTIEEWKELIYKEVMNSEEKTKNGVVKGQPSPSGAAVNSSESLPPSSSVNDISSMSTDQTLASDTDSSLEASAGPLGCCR

[19] = Mean residence time in Sprague-Dawley rat; assay type: ADME, organism-based; conditions: in vivo
[20] = target: Proto-oncogene tyrosine-protein kinase Src (Homo sapiens, UniProt P12931); assay: Inhibition of Src by radioactive filtration assay
[21] = target: T3, Mitogen-activated protein kinase 14; assay: Inhibition of p38-alpha by radioactive filtration assay
[22] = target: Vascular endothelial growth factor receptor 2 and tyrosine-protein kinase TIE-2 (KDR and TIE2) (Homo sapiens) (UniProt P35968+Q02763); assay: Selectivity for Tie2 over KDR in cell based autophosphorylation assay
Vascular endothelial growth factor receptor 2 and tyrosine-protein kinase TIE-2 (KDR and TIE2) (Homo sapiens), sequence (P35968 whole entry, looked up): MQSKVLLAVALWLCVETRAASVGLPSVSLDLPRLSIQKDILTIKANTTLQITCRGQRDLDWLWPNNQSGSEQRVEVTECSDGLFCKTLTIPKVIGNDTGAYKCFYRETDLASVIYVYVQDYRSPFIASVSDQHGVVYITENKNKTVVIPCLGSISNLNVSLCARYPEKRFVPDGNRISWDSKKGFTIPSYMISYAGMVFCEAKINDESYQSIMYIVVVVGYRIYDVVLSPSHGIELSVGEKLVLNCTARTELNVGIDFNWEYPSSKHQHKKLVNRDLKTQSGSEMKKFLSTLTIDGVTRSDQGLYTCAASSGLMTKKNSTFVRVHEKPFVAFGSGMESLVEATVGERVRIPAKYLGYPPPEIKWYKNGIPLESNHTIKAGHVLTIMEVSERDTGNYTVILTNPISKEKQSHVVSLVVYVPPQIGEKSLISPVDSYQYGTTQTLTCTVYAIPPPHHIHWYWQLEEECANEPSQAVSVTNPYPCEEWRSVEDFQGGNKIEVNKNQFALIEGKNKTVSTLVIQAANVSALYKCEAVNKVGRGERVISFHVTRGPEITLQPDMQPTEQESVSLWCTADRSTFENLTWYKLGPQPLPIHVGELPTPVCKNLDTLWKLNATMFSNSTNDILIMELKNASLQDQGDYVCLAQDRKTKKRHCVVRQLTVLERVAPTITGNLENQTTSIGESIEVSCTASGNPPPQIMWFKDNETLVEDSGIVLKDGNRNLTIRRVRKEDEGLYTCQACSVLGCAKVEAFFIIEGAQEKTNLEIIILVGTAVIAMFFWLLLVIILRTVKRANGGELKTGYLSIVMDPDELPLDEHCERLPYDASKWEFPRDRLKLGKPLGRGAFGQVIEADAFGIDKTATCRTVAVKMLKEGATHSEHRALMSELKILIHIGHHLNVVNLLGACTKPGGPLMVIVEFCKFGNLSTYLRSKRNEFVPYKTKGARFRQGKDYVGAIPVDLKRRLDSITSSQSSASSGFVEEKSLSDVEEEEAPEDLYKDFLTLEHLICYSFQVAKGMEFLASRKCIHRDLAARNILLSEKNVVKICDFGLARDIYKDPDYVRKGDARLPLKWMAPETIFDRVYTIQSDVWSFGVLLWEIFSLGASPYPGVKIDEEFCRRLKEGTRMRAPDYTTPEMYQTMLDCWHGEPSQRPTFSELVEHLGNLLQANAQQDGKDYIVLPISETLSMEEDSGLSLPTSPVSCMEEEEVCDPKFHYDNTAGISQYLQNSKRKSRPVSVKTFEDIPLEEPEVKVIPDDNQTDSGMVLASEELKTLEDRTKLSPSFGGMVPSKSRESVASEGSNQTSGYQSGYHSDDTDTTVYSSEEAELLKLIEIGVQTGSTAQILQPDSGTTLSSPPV
Vascular endothelial growth factor receptor 2 and tyrosine-protein kinase TIE-2 (KDR and TIE2) (Homo sapiens), sequence (Q02763 whole entry, looked up): as the sequence (Q02763 whole entry) above

T1 sequence (P35968 whole entry): as the sequence (P35968 whole entry, looked up) above

`CNc1cc(-c2cccnc2Oc2cc(NC(=O)c3cccc(C(C)C)c3)ccc2C)ccn1` gave an IC50 [1] of 18 nM, an IC50 (Angiopoietin-1 receptor [2]) of 11 nM and an IC50 (Angiopoietin-1 receptor [3]) of 1 nM. The clearance [4] was 54.3 mL/min/kg.
`CNc1cc(-c2cccnc2Oc2cc(NC(=O)c3cccc(OC(F)(F)C(F)F)c3)ccc2C)ccn1` showed an IC50 [1] of 233 nM, an IC50 (Angiopoietin-1 receptor [2]) of 13 nM and an IC50 [5] of 943 nM. It also gave an IC50 (Angiopoietin-1 receptor [3]) of 9 nM and a clearance [4] of 60.7 mL/min/kg.
Compound `CNc1cc(-c2cccnc2Oc2cc(C(=O)Nc3cccc(C(C)C)c3)ccc2C)ccn1` has an IC50 [1] of 5 nM and an IC50 (Angiopoietin-1 receptor [3]) of 3 nM.
Work on `Cc1ccc(NC(=O)c2cccc(C(F)(F)F)c2)cc1Nc1ncccc1-c1ccncn1` yielded an IC50 [1] of 61 nM.
Work on `CNc1ncnc(-c2cccnc2Oc2cc(NC(=O)c3cccc(OC(F)(F)F)c3)ccc2C)n1` yielded an IC50 [1] of 442 nM, an IC50 (Angiopoietin-1 receptor [2]) of 15 nM and an IC50 [5] of 540 nM. The IC50 (Angiopoietin-1 receptor [3]) was 8 nM and the clearance [4] was 83 mL/min/kg.
`CNc1ncnc(-c2cccnc2Oc2cc(NC(=O)c3cccc(OC(F)(F)C(F)F)c3)ccc2C)n1` gave an IC50 [1] of 1000 nM, an IC50 (Angiopoietin-1 receptor [2]) of 33 nM and an IC50 [6] of 5360 nM. The AUC(0-inf) [7] was 509 ng·h/mL, the IC50 [8] was 146 nM and the IC50 [5] was 4300 nM. For the same compound, the solubility [9] was 21 µg/mL (≈ 39.7 µM), the bioavailability [10] was 4% and the Cmax [11] was 119 ng/mL. It also gave a Vd [12] of 1.31 L/kg, a half-life [13] of 1.7 h and an IC50 (Angiopoietin-1 receptor [3]) of 16 nM. For the same compound, the IC50 [14] was 17800 nM, the solubility [15] was 3 µg/mL (≈ 5.68 µM) and the IC50 [16] was 1750 nM. For the same compound, the IC50 [17] was 194 nM, the IC50 [18] was 40000 nM and the MRT [19] was 1.5 h. For the same compound, the clearance [4] was 14.8 mL/min/kg, the IC50 [20] was 2190 nM and the IC50 [21] was 47 nM.
Compound `CNc1nccc(-c2cccnc2Oc2cc(NC(=O)c3cccc(C(C)C)c3)ccc2C)n1` has an IC50 [1] of 2 nM and an IC50 (Angiopoietin-1 receptor [3]) of 2 nM.
`CNc1nccc(-c2cccnc2Oc2cc(C(=O)Nc3cccc(C(C)C)c3)ccc2C)n1` gave an IC50 [1] of 38 nM and an IC50 (Angiopoietin-1 receptor [3]) of 13 nM.
`CNc1ncnc(-c2cccnc2Oc2cc(NC(=O)c3cccc(C(F)(F)F)c3)ccc2C)n1` gave an IC50 [1] of 309 nM and an IC50 (Angiopoietin-1 receptor [3]) of 20 nM.
For `CNc1ncnc(-c2cccnc2Oc2cccc(NC(=O)c3cccc(C(C)C)c3)c2)n1`, the IC50 [1] was 456 nM, the IC50 (Angiopoietin-1 receptor [2]) was 85 nM and the IC50 (Angiopoietin-1 receptor [3]) was 6 nM. The clearance [4] was 73.7 mL/min/kg.
Compound `CNc1ncnc(-c2cccnc2Oc2cc(C(=O)Nc3cccc(C(C)C)c3)ccc2C)n1` has an IC50 [1] of 20 nM and an IC50 (Angiopoietin-1 receptor [3]) of 1 nM.
For `CNc1ncnc(-c2cccnc2Oc2cc(NC(=O)c3cccc(C(C)C)c3)ccc2F)n1`, the IC50 [1] was 128 nM, the half-life [13] was 0.8 h and the IC50 (Angiopoietin-1 receptor [3]) was 4 nM. The MRT [19] was 0.5 h and the clearance [4] was 18.4 mL/min/kg.
Work on `CNc1ncnc(-c2cccnc2Oc2cc(NC(=O)c3cccc(-n4cccc4)c3)ccc2C)n1` yielded an IC50 [1] of 1130 nM, an IC50 (Angiopoietin-1 receptor [2]) of 23 nM and a Ratio IC50 [22] greater than 1000. It also gave an IC50 [5] of 25000 nM, an IC50 (Angiopoietin-1 receptor [3]) of 17 nM and a clearance [4] of 63.8 mL/min/kg.
`CNc1cc(-c2cccnc2Oc2ccc(Cl)c(NC(=O)c3cccc(C(C)C)c3)c2)ccn1` gave an IC50 [1] of 9 nM and an IC50 (Angiopoietin-1 receptor [3]) of 6 nM.
`CNc1cc(-c2cccnc2Oc2cccc(NC(=O)c3cccc(C(C)C)c3)c2)ccn1` gave an IC50 [1] of 18 nM and an IC50 (Angiopoietin-1 receptor [3]) of 4 nM.
For `CNc1ncnc(-c2cccnc2Oc2cc(NC(=O)c3cccc(C(C)C)c3)ccc2C)n1`, the IC50 [1] was 117 nM, the IC50 (Angiopoietin-1 receptor [2]) was 5 nM and the IC50 (Angiopoietin-1 receptor [3]) was 1 nM. The clearance [4] was 65.7 mL/min/kg.
Work on `CNc1ncnc(-c2cccnc2Oc2cc(NC(=O)c3cccc(C(C)C)c3)cc(C(F)(F)F)c2)n1` yielded an IC50 [1] of 25000 nM and an IC50 (Angiopoietin-1 receptor [3]) of 55 nM.
